{"source": "paper PMC10428205", "about": "“Cytotoxicity of Ruthenium(II) Arene Complexes Containing Functionalized Ferrocenyl β-Diketonate Ligands” (Organometallics, 2023)", "key": {"MIA PaCa-2 [1]": {"tested_on": "MIA PaCa-2", "assay": "Comet assay of cellular DNA damage", "format": "cell-based, human", "details": "MIA PaCa-2, 48 h incubation, varying concentration", "description": "Complexes 2, 4, and 7 were chosen due to their range in cytotoxicity, where complex 2 is moderately active and complexes 4 and 7 have the highest activities. Their ability to induce single-strand breakage (SSB) of DNA with varying concentrations of compound was studied after incubation with MIA PaCa-2 cells for 48 h. After harvesting the cells, quantification of the levels of SSB of DNA were assessed by using the alkaline comet assay.\nSamples were then taken up in Optima high purity nitric acid, diluted to 10 mL with 1mL rhodium internal standard and 9 mL 18.2 Ultrapure water. The elemental contents of the samples were determined using ICP-MS-QQQ Thermo TQ spectrometer. Measurement of iron mass 56 and ruthenium isotope mass 100 was conducted by comparing solutions of known concentration and intensities. A series of standard calibration curves allows the concentration of each element to be determined. […]\nThe media -free wells were then trypsinized (1 mL) for 3 -5 minutes and then neutralized with high glucose DMEM (1 mL), these were all added to the centrifuge t ube and centrifuged at 1500 rpm for 3 minutes. […] Staining solution (150 mL) was added to each slide and the Comets analysed using Comet assay III software. A minimum of 50 different comets were scored and the computer outputs an average on head and tail intensities and tail moments. […]"}, "MIA PaCa-2 [2]": {"tested_on": "MIA PaCa-2", "assay": "Whole cell uptake by ICP-MS", "format": "cell-based, human", "details": "MIA PaCa-2, 10 μM, 48 h; for Whole cell uptake of Fe: ICP-MS", "description": "Cellular assays were conducted against human pancreatic carcinoma (MIA PaCa-2), human colorectal carcinoma p53-wildtype (HCT116 p53+/+), and human non-cancerous epithelial retinal cells (ARPE-19). The ARPE-19 cells were obtained from the American Type Culture Collection and provided by the University of Huddersfield. All cell lines were routinely maintained as monolayer cultures in appropriate complete medium and maintained in either T-25 or T-75 flasks at 37 °C and 5% CO2. MIA PaCa-2 and ARPE-19 cells were cultured in high glucose DMEM-F12 medium containing 10% foetal calf serum, and HCT116 p53+/+ was cultured in RPMI 1640 supplemented with […]\n10% foetal calf serum. […]\nCell uptake assays were conducted using MIA PaCa-2 cells and these were maintained as described above. All assays were conducted in 6-well plates and cell concentrations of 1 x 10^5 cells/ well in 2 mL of complete cell media. These cell suspensions were added to the wells and incubated at 37°C and 5% CO2 for 24 h. The media was then removed, and 2 mL of media/copper compound was added to each well. For each compound, a concentration of 10 µM of ligands L1, L2, L4, L7 or complexes C1, C2, C4, C7 were used. The cells were incubated with the complexes for 48 h, before removing and discarding the media. The cell monolayers were then individually washed with PBS (3 x 1 mL) and all waste discarded. 0.25% Trypsin-EDTA (0.5 mL) was then added until the cells were removed from the surface of the wells and then diluted with media (1.5 mL). The contents of each well were transferred to separate Falcon tubes and centrifuged at 1500 rpm for 5 min. The supernatant was removed, the cell pellets were resuspended in PBS (1 mL) and centrifuged again at 1500 rpm for 5 min (this was completed 3 times). On the final time, the cells were counted before the last centrifuge and then pelleted and store in the freezer for ICP-MS analysis. All assays were conducted in triplicate.\nSamples were then taken up in Optima high purity nitric acid, diluted to 10 mL with 1mL rhodium internal standard and 9 mL 18.2 Ultrapure water. The elemental contents of the samples were determined using ICP-MS-QQQ Thermo TQ spectrometer. Measurement of iron mass 56 and ruthenium isotope mass 100 was conducted by comparing solutions of known concentration and intensities. A series of standard calibration curves allows the concentration of each element to be determined. The standards were prepared by weight using 1000 mg/kg reference solutions. Operating conditions: cooling flow rate, 14.0 L/min, auxiliary gas flow rate, 0.8 L/min; sampling Depth 5 mm, additional gas flow 75 %, spray chamber 2.7 degrees, nebulizer flow rate, 1.144 L/min pump speed 15 rpm, RF power of 1,550 W.\nAnalysis of cellula r DNA damage by the Comet assay […]"}}}
{"smiles": "[NH2][Pt]([NH2])([Cl])[Cl]", "note": "[CDDP, cisplatin, reference compound]", "values": [{"measurement": "single-strand breakage (SSB) of DNA", "setting": "MIA PaCa-2 [1]", "result": "dose-dependent SSB similar to that of complex 4"}]}
{"smiles": "CC(O)=CC(=O)[c-]1cccc1.[Fe+2].c1cc[cH-]c1", "note": "[Complex L1]", "values": [{"measurement": "Whole cell uptake of Fe", "setting": "MIA PaCa-2 [2]", "result": "2661 ± 974", "unit": "ng Fe/10^6 cells"}]}
{"smiles": "O=C(C=C(O)c1ccccc1)[c-]1cccc1.[Fe+2].c1cc[cH-]c1", "note": "[Complex L2]", "values": [{"measurement": "Whole cell uptake of Fe", "setting": "MIA PaCa-2 [2]", "result": "2524 ± 458", "unit": "ng Fe/10^6 cells"}]}
{"smiles": "O=C(C=C(O)C(F)(F)F)[c-]1cccc1.[Fe+2].c1cc[cH-]c1", "note": "[Complex L7]", "values": [{"measurement": "increase in Fe uptake compared to the control", "setting": "MIA PaCa-2 [2]", "result": "ca. 1.7 ×"}, {"measurement": "Whole cell uptake of Fe", "setting": "MIA PaCa-2 [2]", "result": "1536 ± 202", "unit": "ng Fe/10^6 cells"}]}
